Reference: patent publication US8084221B2, “Method of screening for a drug candidate that increases ATP release from RBCs stimulated via the Gs or Gi pathway” (Saint Louis University, priority 2006, dated 2011)
Entries after “also recorded” stand apart in the source; their conditions may differ. Each block holds one compound with its values, some of them ahead of it.

Experiments:
[1] = system: RBCs derived from humans having type 2 diabetes; experiment: MAS7-induced ATP release by RBCs from humans with type 2 diabetes; format: cell-based, human; details: type 2 diabetic RBCs, stimulation via the Gi pathway (MAS7), compared with RBCs of healthy individuals, FIG. 7
Procedure: (§1) Erythrocytes (20% hct) were incubated with Mastoparan 7 (10 μM) or its vehicle in the presence or absence of 1 uM insulin. ATP release from erythrocytes was measured at 5 minute intervals using the luciferan/luciferase assay. In separate studies, erythrocytes (50% hct) were incubated with vehicle, 10 uM cilostazol, 100 μM cilostazol, […], 3 uM insulin, and/or 10 uM Mastoparan 7 for determination of cAMP concentration. At timed intervals, 4 mL of ice cold ethanol containing 1 mM HCl was added to 1 mL of RBC suspension. After centrifugation at 14,000×g at 4° C. for 10 min., the supernatant was dried under vacuum. Samples were resuspended in assay buffer and cAMP concentration was determined in duplicate by EIA.
(§2) Measurement of ATP: ATP was measured using the luciferin-luciferase assay. A 200 μL sample of an erythrocyte suspension was injected into a cuvette containing 100 μL of 10 mg/ml crude firefly tail extract and 100 μL of a 0.5 mg/ml solution of D-luciferin. The light emitted from the reaction of ATP with the crude firefly tail extract was measured using a luminometer designed to detect a wavelength of 565 nm. The peak light emitted was compared to an ATP standard curve generated on the day of the experiment.

[2] = system: human erythrocytes; experiment: cAMP concentration in human erythrocytes (EIA); format: cell-based; details: for cAMP production / synthesis on incubation with activator: activator of Gs or Gi alone; for Mas7-induced cAMP accumulation in the presence of insulin: MAS7 10 μM, insulin pre-incubation; for cAMP accumulation in response to Gs/Gi activation or reduced O2 tension, in the presence of insulin: insulin at concentrations reported in plasma of humans with prediabetes
Procedure: as §1
(§3) Protocol A: Washed erythrocytes are incubated with insulin (0.1 nM-1 μM, Humalog®), or its vehicle (saline) for 30 min [28, 29, 47, 60]. Erythrocytes are incubated with either iloprost (1 μM), isoproterenol (10 μM) (receptor-mediated activators of Gs) or mastoparan 7 (MAS7, 10 μM) (a direct activator of Gi) or their vehicle (saline). After 15 min, cAMP accumulation and ATP release will be determined.
After 30 min, the cells were incubated with either iloprost (1 μM), isoproterenol (10 μM), MAS7 (10 μM) or exposed to reduce O2 tension and cAMP accumulation and ATP release was determined. Control experiments: Identical experiments were performed with the vehicles for the various inhibitors. […] The concentrations chosen for rolipram and sildenafil PDE are those reported to be specific for the PDEs indicated.
Measurement of cAMP: 1 ml of erythrocyte suspension was added to 4 ml of ice cold ethanol containing 1 mM HCl and the mixture was centrifuged at 21,000×g for 10 minutes at 4° C. The supernatant was removed and stored overnight at −20° C. to precipitate remaining proteins. Samples were centrifuged a second time at 3,700×g for 10 minutes at 4° C. The supernatant was removed and dried under vacuum centrifugation. Concentrations of cAMP were determined by EIA.

[3] = system: PDE4; details: reported in reference [54]; cited from earlier work
[4] = system: human erythrocytes; experiment: ATP release from human erythrocytes (luciferin-luciferase assay); format: cell-based; details: for ATP release on incubation with activator: activator of Gs or Gi alone; for Mas7-induced ATP release in the presence of insulin: MAS7 10 μM, insulin 1 μM pre-incubation; for ATP release in response to Gs/Gi activation or reduced O2 tension, in the presence of insulin: insulin at concentrations reported in plasma of humans with prediabetes
Procedure: as §1, §3
Protocol C: To determine effects of direct activation of adenylyl cyclase and active cAMP analogs on ATP release from erythrocytes in the presence of insulin, washed erythrocytes are incubated with insulin (0.1 nM-1 μM) or its vehicle (saline). After 30 min, the cells are incubated with either the non-selective activator of adenylyl cyclase (AC) activity, forskolin (1 to 10 μM), or one of two active cAMP analogs that are resistant to degradation, SpcAMP (10 to 100 μM) or 8-bromo-cAMP (10 to 100 μM). ATP release will be measured at 5, 10 and 15 min after addition of forskolin or the active cAMP analogs. Controls: To ensure the effects of forskolin or the cAMP analogs are not due to effects of vehicle or time, identical experiments are conducted using their vehicles, N,Ndimethylformamide (DMF) or saline, respectively, in lieu of the active agent. Total intracellular ATP and free hemoglobin, a measurement of erythrocyte lysis, is determined.
as §2
Exposure of Erythrocytes to Reduced Oxygen Tension: Washed erythrocytes were diluted in Krebs buffer containing bicarbonate (4.7 KCl, 2.0 mM CaCl2, 140.5 mM NaCl, 1.2 mM MgSO4) and equilibrated for 30 minutes in a tonometer (15% O2, 5% CO2, balance N2) (normoxia). Erythrocytes were then exposed to hypoxia by changing the equilibrating gas to 5% O2, 5% CO2, balance N2. ATP released from the erythrocytes as well as pH and blood gas tensions were determined at 5, 10 and 15 min after exposure to the various gas tensions. In separate studies, samples were collected into acidified ethanol for cAMP measurement.

[5] = system: human erythrocytes; experiment: Total intracellular ATP of erythrocytes; format: cell-based; details: human erythrocytes pre-incubated with insulin 1 μM
Procedure: Measurement of Total Intracellular ATP: A known number of erythrocytes was lysed in distilled water at room temperature. ATP in the lysate, diluted 8,000 fold, was measured using ATP assay and the values normalized to ATP concentration per erythrocyte.

Compound: O=C1CCc2cc(OCCCCc3nnnn3C3CCCCC3)ccc2N1 [cilostazol]
MAS7-induced ATP release by diabetic RBCs treated with cilostazol [1]: normal levels of ATP
MAS7-induced ATP release by diabetic RBCs treated with cilostazol ([1]; listed as CILO): not significantly different from the levels released by RBCs of healthy individuals
iloprost-induced cAMP accumulation after cilostazol pre-treatment ([2]; FIG. 11): concentration-dependent increases
basal cAMP levels ([2]; in the presence of cilostazol): increased
concentrations inhibiting PDE4 activity relative to those used here [3]: ten-fold greater

ATP release on incubation with activator [4]: stimulate
Compound: CC#CCC(C)[C@H](O)/C=C/[C@@H]1[C@H]2C/C(=C/CCCC(=O)O)C[C@H]2C[C@H]1O (stereo partly drawn) [iloprost, reference compound]
cAMP production / synthesis on incubation with activator [2]: stimulate

ATP release on incubation with activator [4]: stimulate
Compound: CC(C)NCC(O)c1ccc(O)c(O)c1 (stereo not drawn) [isoproterenol, reference compound]
cAMP production / synthesis on incubation with activator [2]: stimulate

Compound: COc1ccc(C2CNC(=O)C2)cc1OC1CCCC1 (stereo not drawn) [rolipram, reference compound]
iloprost-induced cAMP accumulation with rolipram ([2]; rolipram 30 μM, n=6): no effect

Compound: Mastoparan 7 [reference compound]
cAMP production / synthesis on incubation with activator [2]: increased cAMP production
cAMP production / synthesis on incubation with activator ([2]; listed as MAS7): stimulate
ATP release on incubation with activator [4]: ATP release
ATP release on incubation with activator ([4]; listed as MAS7): stimulate

Compound: insulin: insulin incubated with erythrocytes; Humalog or regular human insulin in the protocols
Mas7-induced cAMP accumulation in the presence of insulin ([2]; FIG. 8): greater at lower (nM) insulin concentrations; also recorded: decline; also recorded: decreases; also recorded: reduces; also recorded: inhibition
Mas7-induced cAMP accumulation in the presence of insulin ([2]; FIG. 8, listed as Insulin): reduces
cAMP accumulation in response to Gs/Gi activation or reduced O2 tension, in the presence of insulin [2]: inhibited; also recorded: limit; also recorded: decreases
cAMP accumulation in response to Gs/Gi activation or reduced O2 tension, in the presence of insulin ([2]; listed as Insulin): decreases
Mas7-induced ATP release in the presence of insulin ([4]; FIG. 9): inhibit; also recorded: decline; also recorded: decreases; also recorded: reduces; also recorded: attenuated
Mas7-induced ATP release in the presence of insulin ([4]; FIG. 9, listed as Insulin): reduces
ATP release in response to Gs/Gi activation or reduced O2 tension, in the presence of insulin [4]: inhibits; also recorded: attenuates
ATP release in response to Gs/Gi activation or reduced O2 tension, in the presence of insulin ([4]; listed as Insulin): attenuates
ATP release in response to active cAMP analogs resistant to hydrolysis by PDEs, in the presence of insulin ([4]; insulin pretreatment): no effect
total ATP content [5]: absence of changes
